US20260217701A1, “SELECTIVE BET INHIBITORS AND USES THEREOF” (Tay Therapeutics Limited, priority 2022, published 2026)

Tests used:
[1] = tested on: collagen-induced arthritis; experiment: CIA model: histopathologic analysis of hind limbs; assay type: in vivo, Lewis rats; conditions: for Pathologic observations after microscopic evaluation: Group 3 (CIA + Dexamethasone); for Erosion/Ulcer, cartilaginous, Marked (number of animals) / Erosion/Ulcer, cartilaginous, Mild (number of animals) / Erosion/Ulcer, cartilaginous, Minimal (number of animals) / Erosion/Ulcer, cartilaginous, Moderate (number of animals) / Granulation tissue, Marked (number of animals) / Granulation tissue, Mild (number of animals) / Granulation tissue, Minimal (number of animals) / Granulation tissue, Moderate (number of animals) / Increased bone, periosteum, Marked (number of animals) / Increased bone, periosteum, Mild (number of animals) / Increased bone, periosteum, Minimal (number of animals) / Increased bone, periosteum, Moderate (number of animals) / Increased eroded surface, bone, Marked (number of animals) / Increased eroded surface, bone, Mild (number of animals) / Increased eroded surface, bone, Minimal (number of animals) / Increased eroded surface, bone, Moderate (number of animals) / Mixed cell inflammation, Marked (number of animals) / Mixed cell inflammation, Mild (number of animals) / Mixed cell inflammation, Minimal (number of animals) / Mixed cell inflammation, Moderate (number of animals) / No Visible Lesions (number of animals): hind limbs, CIA induced, 8 animals examined, comparator, dose not given
Description: Mean histopathologic scores for tissue samples from animals in Groups 1-6 are depicted in FIG. 22A, and day 21 histology scores for all animals are illustrated in FIG. 22B.

[2] = tested on: collagen-induced arthritis; conditions: for animals with weight gain at end of study / diarrhea over the 21-day period / increase in body weight, day 21 vs day 0: rat, in vivo; for increase in body weight, day 21 vs day 0: po; for control of hind paw volume: reference treatments vs CIA+vehicle (group 2)
Description: (§1) The emulsion was cooled in an ice water bath during the formulation. The final concentration of collagen was 1 mg/mL. The emulsion is prepared fresh immediately prior to injection.
as §1
Experimental groups for the study are outlined in Table 5A. […] Animals in group one received no immunization.
IHC markers for staining were selected after evaluating clinical and histopathological scores for animals. After the skin was removed, the right hind limb was snap frozen in liquid nitrogen and RNA and protein analysis was performed.
Blood samples were collected from animals in groups 1-7 via cardiac puncture following euthanasia on Day 21. […] Serum was divided into two separate tubes and stored at −75±15° C. One tube was used to analyze IgG1, and the other tube was reserved for additional analyses.
H&E-stained slides of designated tissues from animals were transferred to an independent pathologist for microscopic evaluation (SPFBio). Samples were assigned the histologic grades based on the severity of change from tissue where CIA was not induced. Histology grades assigned were as follows: grade 1 (minimal change), grade 2 (mild change), grade 3 (moderate change), grade 4 (marked change), and grade 5 (severe change). A grade may be assigned for each indicator of disease severity: inflammation, mixed cell; granulation tissue; increased bone, periosteum; increased eroded surface, bone and erosion/ulcer, cartilaginous. […] Moderate inflammation was also associated with increased edema fluid, fibrin, and cellular debris. Marked mixed cell inflammation was characterized by dense, widespread accumulations of neutrophils and macrophages with lesser number of lymphocytes within one or more joint spaces, synovium and periarticular soft tissues. Marked inflammation was also associated with abundant edema fluid, fibrin, and cellular debris.
Marked granulation tissue (pannus) was associated with inflammation and was characterized by widespread fibrovascular connective tissue that expanded/replaced the periarticular soft tissues of one or more joints, extended into/expanded joint spaces, was contiguous with areas of erosion/ulcer in articular cartilage and/or increased eroded surface of bone, and variably extended along the diaphysis.
Marked increased periosteal bone (periosteal bone formation) was characterized by extensive areas of increased bone matrix and numerous prominent osteoblasts lining trabecular surfaces along the metaphysis and/or diaphysis of one or more bones.

SMILES	Erosion/Ulcer, cartilaginous, Marked (number of animals) [1]	Erosion/Ulcer, cartilaginous, Mild (number of animals) [1]	Erosion/Ulcer, cartilaginous, Minimal (number of animals) [1]	Erosion/Ulcer, cartilaginous, Moderate (number of animals) [1]	Granulation tissue, Marked (number of animals) [1]	Granulation tissue, Mild (number of animals) [1]	Granulation tissue, Minimal (number of animals) [1]	Granulation tissue, Moderate (number of animals) [1]	Increased bone, periosteum, Marked (number of animals) [1]	Increased bone, periosteum, Mild (number of animals) [1]	Increased bone, periosteum, Minimal (number of animals) [1]	Increased bone, periosteum, Moderate (number of animals) [1]	Increased eroded surface, bone, Marked (number of animals) [1]	Increased eroded surface, bone, Mild (number of animals) [1]	Increased eroded surface, bone, Minimal (number of animals) [1]	Increased eroded surface, bone, Moderate (number of animals) [1]	Mixed cell inflammation, Marked (number of animals) [1]	Mixed cell inflammation, Mild (number of animals) [1]	Mixed cell inflammation, Minimal (number of animals) [1]	Mixed cell inflammation, Moderate (number of animals) [1]	further results
C[C@@H]1C[C@H]2[C@@H]3CCC4=CC(=O)C=C[C@]4(C)[C@@]3(F)[C@@H](O)C[C@]2(C)[C@@]1(O)C(=O)CO [Dexamethasone, dexamethasone]	0	0	0	0	0	0	0	0	0	0	0	0	0	0	0	0	0	0	0	0	Pathologic observations after microscopic evaluation [1]: no histopathological observations noted; Pathologic observations after microscopic evaluation ([1]; listed as dexamethasone): No pathologic observations; No Visible Lesions (number of animals) [1]: 8; animals with weight gain at end of study [2]: 4/8; diarrhea over the 21-day period [2]: did not have diarrhea; increase in body weight, day 21 vs day 0 [2]: 1.3%; average overall clinical score at plateau ([2]; reference treatments (groups 3 and 4), around day 18): never exhibited any signs of disease; control of hind paw volume [2]: effective at controlling paw volume
CNC(=O)c1cc(C(=O)NC2CC2)cn(Cc2ccccc2)c1=O [GSK620]	0	6	0	2	0	4	0	4	0	6	0	2	0	4	1	3	0	0	0	8	Erosion/ulcer in articular cartilage, grade ([1]; Group 4 (CIA + GSK620)): mild and mild to moderate; Granulation tissue (pannus), grade ([1]; Group 4 (CIA + GSK620)): mild and mild to moderate; Increased eroded surface of bone (bone resorption), grade ([1]; Group 4 (CIA + GSK620)): mild and minimal to moderate; Increased periosteal bone (periosteal bone formation), grade ([1]; Group 4 (CIA + GSK620)): mild and mild to moderate; Mixed cell inflammation, grade ([1]; Group 4 (CIA + GSK620)): moderate; No Visible Lesions (number of animals) [1]: 0; animals exhibiting disease ([2]; group 4, day 18): all animals; animals with weight gain at end of study [2]: 4/8; diarrhea over the 21-day period [2]: did not have diarrhea; increase in body weight, day 21 vs day 0 [2]: 0.8%; control of hind paw volume [2]: failed to prevent an increase in paw volume
